Numbered stars: 1 amine (or outer) side, 2 acyl side, 3 side chain; on linkers, the order of the positions; unused ones are H or OH. Square brackets hold non-standard residues; d marks the D form. Side chains are listed from the residue outwards. Peptide text beside a SMILES is read from it. * marks the point of attachment. C18 diacid = O=C(O)CCCCCCCCCCCCCCCCC(=O)*; γGlu = O=C(O)[C@H](CCC(=O)[*:2])N[*:1]; AEEA = NCCOCCOCC(=O)O; Aib = CC(C)(N)C(=O)O

By AUC(0-t) is commonly meant the area under the concentration-time curve up to a stated or last time point. Usually Cmax stands for the maximum level reached in the sampled fluid or tissue. The term clearance denotes a measure of how efficiently the substance is removed, as volume per time. Read a high clearance as a high capacity for elimination. A word on the half-life: it is how long it takes for the measured level to halve. Usually bioavailability stands for dose-corrected exposure relative to a reference, in per cent.

Data set [1] is described as follows: Pharmacokinetic evaluation in mice. Type of data set: in vivo, female C57Bl/6 mice. Particulars: female, C57Bl/6, mouse, in vivo. Here is the method:
Compounds were administered in a suitable buffer system, e.g. PBS buffer solution at pH7.4 or DPBS solution at concentrations of 0.05, 0.1, 0.5 or 1 mg/ml depending on dose, species and administration volume. Female C57Bl/6 mice were dosed 0.25 mg/kg, 0.5 mg/kg or 1 mg/kg intravenously (i.v.) or subcutaneously (s.c.). The mice were sacrificed, and blood samples were collected after 0.08, 0.25, 0.5, 1, 2, 4, 8, 24, 32, and 48 h post i.v. application and 0.25, 0.5, 1, 2, 4, 8, 24, 32, and 48 h post s.c. application, respectively. Plasma samples were analysed after protein precipitation via liquid chromatography mass spectrometry (LC/MS). PK parameters and half-life were calculated using Phoenix-WinNonlin 8.1 using a non-compartmental model and linear trapezoidal interpolation calculation. Pharmacokinetic profiles were determined as described in Methods.

The nature of data set [2]: Pharmacokinetic evaluation in minipigs. Type of data set: in vivo. Particulars: female, Göttingen, minipig, plasma. Here is the method: Compounds were administered in a suitable buffer system, e.g. PBS buffer solution at pH7.4 or DPBS solution at concentrations of 0.05, 0.1, 0.5 or 1 mg/ml depending on dose, species and administration volume.
Female Göttingen minipigs were dosed 0.05 mg/kg intravenously (i.v.) or 0.1 mg/kg subcutaneously (s.c.). Blood samples were collected at 0 h and after 0.083, 0.25, 0.5, 1, 2, 4, 8, 24, 32, 48, 56, 72, 80, and 96 h post i.v. application and at 0 h and after 0.25, 0.5, 1, 2, 4, 8, 24, 32, 48, 56, 72, 80, and 96 h post s.c. application, respectively. Plasma samples were analysed after protein precipitation via liquid chromatography mass spectrometry (LC/MS). PK parameters and half-life were calculated using Phoenix-WinNonlin 8.1 using a non-compartmental model and linear trapezoidal interpolation calculation.
Pharmacokinetic profiles were determined as described in Methods.

In data set [1] (iv, 0.25 mg/kg), `CC[C@H](C)[C@H](NC(=O)[C@H](CCC(=O)O)NC(=O)[C@H](CCC(=O)O)NC(=O)[C@H](CCCCNC(=O)COCCOCCNC(=O)COCCOCCNC(=O)CC[C@H](NC(=O)CCCCCCCCCCCCCCCCC(=O)O)C(=O)O)NC(=O)C(C)(C)NC(=O)[C@@H](NC(=O)[C@H](CO)NC(=O)[C@H](CC(C)C)NC(=O)[C@H](CC(=O)O)NC(=O)[C@H](CO)NC(=O)[C@@H](NC(=O)[C@H](Cc1ccccc1)NC(=O)[C@@H](NC(=O)CNC(=O)[C@H](CCC(=O)O)NC(=O)C(C)(C)NC(=O)[C@@H](N)Cc1ccc(O)cc1)[C@@H](C)O)[C@@H](C)CC)[C@@H](C)CC)C(=O)N[C@@H](Cc1c[nH]cn1)C(=O)N[C@@H](CCC(N)=O)C(=O)NC(C)(C)C(=O)N[C@@H](CCC(=O)O)C(=O)N[C@@H](Cc1ccccc1)C(=O)N[C@H](C(=O)N[C@@H](CCC(=O)O)C(=O)N[C@@H](Cc1c[nH]c2ccccc12)C(=O)N[C@@H](CC(C)C)C(=O)N[C@@H](CC(C)C)C(=O)N[C@@H](C)C(=O)N[C@@H](CCC(N)=O)C(=O)NCC(=O)N1CCC[C@H]1C(=O)N[C@@H](CO)C(=O)N[C@@H](CO)C(=O)NCC(=O)N[C@@H](C)C(=O)N1CCC[C@H]1C(=O)N1CCC[C@H]1C(=O)N1CCC[C@H]1C(=O)N[C@@H](CO)C(N)=O)[C@@H](C)CC` [SEQ ID NO: 19, H2N-Y-Aib-E-G-T-F-I-S-D-L-S-I-Aib-K[{AEEA}2-gGlu-C18OH]-E-E-I-H-Q-Aib-E-F-I-E-W-L-L-A-Q-G-P-S-S-G-A-P-P-P-S-NH2] (H-Y[Aib]EGTFISDLSI[Aib]K([AEEA-AEEA-γGlu-C18 diacid])EEIHQ[Aib]EFIEWLLAQGPSSGAPPPS-NH2) showed an AUC(0-t) of 20800 ng·h/mL, a Cmax of 3750 ng/mL, a clearance of 0.197 mL/min/kg and a half-life of 8.68 h. Moreover, in data set [1] (sc, 0.5 mg/kg), the AUC(0-t) was determined as 41100 ng·h/mL, the highest level (Cmax) was 2420 ng/mL, the F turned out to be 101% and the half-life was 10.3 h. Moreover, in data set [2] (iv, 0.05 mg/kg i.v.), the AUC(0-t) amounted to 50500 ng·h/mL, the peak level (Cmax) was 1980 ng/mL, the clearance was 0.0107 mL/min/kg and the half-life was 64.1 h. In addition, in data set [2] (sc, 0.1 mg/kg s.c.), the AUC(0-t) was found to be 56800 ng·h/mL, the peak level (Cmax) was 723 ng/mL and the bioavailability amounted to 56%.

The record behind these values is US20240360194A1, “New Peptides as Potent and Selective GIP Receptor Agonists” (Sanofi, priority 2021, published 2024).
